{"source": "paper PMC9446078", "about": "(Frontiers in Endocrinology, 2022)", "key": {"[1]": {"test_system": "HaCaT (human keratinocytes)", "experiment": "Scratch assay, keratinocyte migration under high glucose", "type": "cell-based", "experimental": "(§1) High blood glucose levels hamper the migration of human fibroblasts, endothelial cells, and keratinocytes that impair wound healing ([16]–[20]). […] The detailed protocol and cytotoxicity results are provided in the Supplementary File. An actively growing culture of HFF-1 (human dermal fibroblasts), Ea.hy926 (human endothelial cells), and HaCaT (human keratinocytes) cell lines in Dulbecco’s modified Eagle’s medium containing 25 mM glucose supplemented with 10% fetal bovine serum was prepared. The cells were counted through a hemocytometer and were seeded at a density of 0.08 × 10^6 (HFF-1), 0.1 × 10^6 (Ea.hy926), and 0.2 × 10^6 (HaCaT Cells) cells/well/ml of culture medium. The plates were incubated overnight followed by serum starvation for 24 h. Scratch wounds were made in a confluent monolayer by making a straight scratch in the center of the well using a sterile 200-µl pipette microtip. […] The kinetics of migration of the cells in the wound was recorded by phase-contrast microscopy. The experiment was carried out in duplicate cells for each concentration."}, "HFF-1 cells": {"test_system": "HFF-1 cells", "experiment": "MTT cytotoxicity in HFF-1", "type": "cell-based, human", "details": "HFF-1, all tested concentrations (0.01 to 1000 μM); <30% = non-cytotoxic", "experimental": "(§2) 1. HaCaT, HFF-1 and Ea.hy926 cells were counted and plated in 96 well plates at the density corresponding to 5 X 10^3 cells/well/180 μl of cell growth medium.\n(§3) 2. The above cells were then incubated overnight under growth conditions of 37°C, 95 % Humidity, 5 % CO2.so as to allow the cell recovery and exponential growth.\n(§4) 3. Following overnight incubation, the above cells were serum starved in DMEM (containing 25 mM glucose) supplemented with […] for 24 h.\n(§5) 5. The Ea.hy926 cells were then incubated for 24 h and HaCaT and HFF-1 cells were incubated for 48 h in CO2 incubator at 37 °C, 5 % CO2 and 95 % humidity.\n(§6) 6. Following incubation, the plates were taken out and 20 μl of 5 mg/ml of MTT 3-(4,5-dimethythiazol-2-yl)-2,5-diphenyl tetrazolium bromide solution was added to all the wells followed by additional incubation for 3 h at 37 °C. The supernatant was aspirated and 150 μl of DMSO was added to each well to dissolve formazan crystals. The absorbance of each well was then read at 540 nm using Synergy HT micro plate reader.\n(§7) 7. The percentage cytotoxicity at each tested concentration was calculated using the following formula:\n(§8) % Cytotoxicity = (1-X/R)*100"}, "[2]": {"experiment": "MTT cytotoxicity in HFF-1", "type": "cell-based, human", "details": "human, HFF-1 cells, HFF-1, 48 h, read-out: % Cytotoxicity w.r.t. untreated cells", "experimental": "as §2, §3, §4, §5, §6, §7, §8"}, "[3]": {"target": "T1, human recombinant aldose reductase (Homo sapiens, UniProt P15121)", "T1 construct": "made in house; host or cells: Escherichia coli", "experiment": "Aldose reductase inhibition assay (spectrophotometric, glyceraldehyde substrate)", "type": "biochemical", "details": "recombinant enzyme, DL-glyceraldehyde substrate, pH 6.2, 37°C", "experimental": "Recombinant human aldose reductase was purified from bacterial cultures. Enzyme from expression cultures was extracted and purified essentially as described previously ([12]) with the exception that affinity chromatography over AffiGel Blue (Bio-Rad) was used as a final purification step.\nAR activity was assayed according to the method described in the literature ([13]). The assay mixture in 1 ml contained 50 μM potassium phosphate buffer, pH 6.2, 0.4 mM lithium sulfate, 5 μM 2-mercapto ethanol, 10 μM DL-glyceraldehyde, 0.1 μM NADPH, and enzyme preparation (recombinant enzyme). Appropriate blanks were employed for corrections. The assay mixture was incubated at 37°C and initiated by the addition of NADPH at 37°C. The change in absorbance at 340 nm due to NADPH oxidation was followed in a Cary Bio 100 spectrophotometer.\nThe percent of inhibition with a test compound was calculated considering that the AR activity in the absence of an inhibitor was 100%. The concentration of the test sample giving 50% inhibition (IC50) was then estimated."}, "[4]": {"test_system": "HFF-1 (human dermal fibroblasts)", "experiment": "Scratch assay, fibroblast migration under high glucose", "type": "cell-based", "experimental": "as §1"}, "bovine serum albumin": {"test_system": "bovine serum albumin", "experiment": "Inhibition of advanced glycation end products (fluorometric, glucose + bovine serum albumin)", "type": "biochemical", "details": "control mean 7.5", "experimental": "Fluorescence was measured at the excitation wavelength of 360 nm and the emission wavelength of 440 nm. Afterwards, the samples were cooled to room temperature."}, "[5]": {"experiment": "Toxicokinetics in miniature swine", "type": "in vivo, Hanford miniature swine", "details": "for Cmax: read-out: Cmax; for Tmax: read-out: Tmax", "experimental": "A total of 40 Hanford miniature swine (20 male and 20 female) divided into four treatment groups were used for this study. A 12-week topical application of Galnobax 20% was carried out in the miniature swine wound healing model with twice-daily dosing. Six wounds (10 cm^2 each) of partial thickness were created on the dorsal region of all animals. Four wounds of each animal received twice-daily topical doses of either the vehicle or Galnobax gel, and the remaining two sites served as untreated comparative control wounds. Each group has four male and female miniature swine for the assessments and one each for the recovery period as given in Table 1 . Safety parameters in terms of ECG, clinical pathology, wound site evaluation, and toxicokinetics were performed during the study."}, "HaCaT cells": {"test_system": "HaCaT cells", "experiment": "MTT cytotoxicity in HaCaT", "type": "cell-based, human", "details": "all tested concentrations (0.01 to 1000 μM), <30% = non-cytotoxic", "experimental": "as §2, §3, §4, §5, §6, §7, §8"}, "[6]": {"experiment": "MTT cytotoxicity in HaCaT", "type": "cell-based, human", "details": "human, HaCaT cells, 48 h, read-out: % Cytotoxicity w.r.t. untreated cells", "experimental": "as §2, §3, §4, §5, §6, §7, §8"}, "[7]": {"parameters": "method as in PMID 2879662, PMID 7957532, PMID 6135794", "details": "approved (intravenous) dose; cited from earlier work"}, "[8]": {"details": "1 and 10 µM, compared with control, high glucose"}, "[9]": {"details": "100 and 500 µM compared with 1 and 10 µM"}, "[10]": {"details": "both sexes, Hanford, pig, blood, topical or ocular, 400 mg, Day 1, Group 2 swine, topical 400 mg Galnobax Gel, mean"}, "[11]": {"details": "both sexes, Hanford, pig, blood, topical or ocular, 400 mg, Week 12, Group 2 swine, topical 400 mg Galnobax Gel BID, mean"}}, "note": "pIC50: −log10 of the molar value. Counter-ions that a name gives are not always drawn. Like-named read-outs stand apart in the source and are kept apart here.", "data": [{"compound": "COC(=O)CCc1ccc(OCC(O)CNC(C)C)cc1", "note": "(stereo not drawn) [Esmolol hydrochloride]", "values": [{"measurement": "migration of keratinocytes", "setting": "[1]; [8]", "result": "enhanced the migration"}, {"measurement": "migration of keratinocytes", "setting": "[1]; [9]", "result": "lower migration"}, {"measurement": "cytotoxicity", "setting": "HFF-1 cells", "result": "non-cytotoxic"}, {"measurement": "cytotoxicity at 48 h, 0.01 µM", "setting": "[2]; 0.01 μM", "result": -21.6, "unit": "%"}, {"measurement": "cytotoxicity at 48 h, 0.1 µM", "setting": "[2]; 0.1 μM", "result": -10.7, "unit": "%"}, {"measurement": "cytotoxicity at 48 h, 1 µM", "setting": "[2]; 1 μM", "result": -8.29, "unit": "%"}, {"measurement": "cytotoxicity at 48 h, 10 µM", "setting": "[2]; 10 μM", "result": -17.1, "unit": "%"}, {"measurement": "cytotoxicity at 48 h, 50 µM", "setting": "[2]; 50 μM", "result": -21.8, "unit": "%"}, {"measurement": "cytotoxicity at 48 h, 100 µM", "setting": "[2]; 100 μM", "result": -21.9, "unit": "%"}, {"measurement": "cytotoxicity at 48 h, 500 µM", "setting": "[2]; 500 μM", "result": 14, "unit": "%"}, {"measurement": "cytotoxicity at 48 h, 1000 µM", "setting": "[2]; 1000 μM", "result": 16.6, "unit": "%"}, {"measurement": "pIC50", "setting": "[3]", "result": 3.82}, {"measurement": "migration of fibroblasts", "setting": "[4]; [8]", "result": "enhanced the migration"}, {"measurement": "migration of fibroblasts", "setting": "[4]; [9]", "result": "lower migration"}, {"measurement": "Fluorescence measurement, mean", "setting": "bovine serum albumin; 500 µM", "result": 5}, {"measurement": "Fluorescence measurement, mean", "setting": "bovine serum albumin; 1 mM", "result": 2.6}, {"measurement": "Fluorescence measurement, mean", "setting": "bovine serum albumin; 1 mM, listed as esmolol", "result": "2.6 ± 1.7"}, {"measurement": "concentration at 8 hr", "setting": "[5]; both sexes, Hanford, pig (miniature swine), blood, after first topical dose of Galnobax Gel 400 mg, below the quantitation limit, read-out: blood concentration by the second daily dose (8 hr)", "result": "< 5", "unit": "ng/mL"}, {"measurement": "AUC(0-t)", "setting": "[5]; [10]", "result": 18.7, "unit": "ng·h/mL"}, {"measurement": "Cmax", "setting": "[5]; [10]", "result": 30.3, "unit": "ng/mL"}, {"measurement": "Tmax", "setting": "[5]; [10]", "result": 18, "unit": "min"}, {"measurement": "AUC(0-t)", "setting": "[5]; [11]", "result": 17.5, "unit": "ng·h/mL"}, {"measurement": "AUC from 0 to 8 h", "setting": "[5]; both sexes, Hanford, pig, blood, topical or ocular, 400 mg, Week 12, Group 2 swine, topical 400 mg Galnobax Gel BID, mean, read-out: AUC0-8", "result": 35.4, "unit": "ng·h/mL"}, {"measurement": "Cmax", "setting": "[5]; [11]", "result": 140, "unit": "ng/mL"}, {"measurement": "Tmax", "setting": "[5]; [11]", "result": 22.8, "unit": "min"}, {"measurement": "accumulation after 12 weeks of twice-daily topical application", "setting": "[5]; miniature swine, topical Galnobax", "result": "no apparent accumulation"}, {"measurement": "cytotoxicity", "setting": "HaCaT cells", "result": "non-cytotoxic"}, {"measurement": "cytotoxicity at 48 h, 0.01 µM", "setting": "[6]; 0.01 μM", "result": -19.2, "unit": "%"}, {"measurement": "cytotoxicity at 48 h, 0.1 µM", "setting": "[6]; 0.1 μM", "result": -8.02, "unit": "%"}, {"measurement": "cytotoxicity at 48 h, 1 µM", "setting": "[6]; 1 μM", "result": -6.93, "unit": "%"}, {"measurement": "cytotoxicity at 48 h, 10 µM", "setting": "[6]; 10 μM", "result": -14.8, "unit": "%"}, {"measurement": "cytotoxicity at 48 h, 50 µM", "setting": "[6]; 50 μM", "result": -18.1, "unit": "%"}, {"measurement": "cytotoxicity at 48 h, 100 µM", "setting": "[6]; 100 μM", "result": -18.5, "unit": "%"}, {"measurement": "cytotoxicity at 48 h, 500 µM", "setting": "[6]; 500 μM", "result": 16.2, "unit": "%"}, {"measurement": "cytotoxicity at 48 h, 1000 µM", "setting": "[6]; 1000 μM", "result": 18.3, "unit": "%"}, {"measurement": "Cmax of the approved human dose", "setting": "[7]", "result": "868–1,470 ng/ml"}]}]}
